Assay results from patent US20130310387A1, “Monocyclic Heteroaryl Cycloalkyldiamine Derivatives” (NOVARTIS AG, priority 2012, published 2013).

Legend:
[1] = system: phosphorylation of BLNK in Ramos B cells; assay: Anti IgM-induced phosphorylation of BLNK in Ramos B cells; format: cell-based; settings: Homo sapiens, 0.25 h, anti IgM 15 min, flow cytometry anti-BLNK (pY84)
Experimental: Anti IgM-induced phosphorylation of BLNK (BLNK=B cell linker (SLP65=SH2 domain containing leukocyte protein of 65 kDa)) in Ramos B cells: Ramos B cells in a volume of 25 μl were incubated with 25 μl of the compound solution at 2-fold the desired final concentration for 30 min. at 37° C. Then 50 μL anti IgM was added, mixed and incubated for 15 min. at 37° C. In each experiment 8-fold serial dilutions of compounds were tested. The stimulation was stopped by addition of 100 μL/well of PFA (para formaldehyde) I PBS (phosphate buffered saline) (final conc. 2% PFA) for fixation and incubated for 15 min. at 37° C., then centrifuged at 1300 rpm for 3 min and permeabilized by resuspending the cell pellet in 100 μL methanol 90% and further incubated for 30 min at 4° C. The cells were then washed and phosphoproteins were detected by flow cytometry using fluorescently labeled anti-BLNK ([…]) (BD Biosciences).

[2] = system: SLP-76 phosphorylation in human whole blood monocytes; assay: FcR stimulation-induced SLP-76 phosphorylation in human whole blood monocytes; format: cell-based; settings: Monocyte, 5 min, anti CD32 stimulation 5 min, flow cytometry, read-out: Fc Recepor stimulation induced SLP-76 phosphorylation in human whole blood monocytes, IC50
Excerpt: After lysis of erythrocytes and washings, the cell pellet was permeabilized with ice-cold methanol 90%. The permeabilized cells were washed and stained with anti CD14 (eBioscience) to detect monocytes and anti P-SLP76 ([…]) (BD Biosciences) and quantified by flow cytometry.

[3] = biological target: Syk (2-635) (KSYK_HUMAN, P43405) (Homo sapiens, UniProt P43405); assay: Syk enzyme assay (chip based microfluidic mobility shift assay); format: biochemical; settings: 4 μM ATP, 4 nM Syk, 60 minutes at 30° C.
Experimental: A number of compounds of the present invention were assayed in a chip based microfluidic mobilitiy shift assay. All assays were performed in 384 well microtiter plates. Each assay plate contained 8-point serial dilutions for 40 test compounds, as well as four 8-point serial dilutions of staurosporine as reference compound, plus 16 high- and 16 low controls. Liquid handling and incubation steps were done on a Thermo CatX workstation equipped with a Innovadyne Nanodrop Express. Between pipetting steps, tips were cleaned in wash cycles using wash buffer. The assay plates were prepared by addition of 50 nl per well of compound solution in 90% DMSO. […] Kinase reactions were incubated at 30° C. for 60 minutes and subsequently terminated by addition of 16 μl per well of stop solution (100 mM HEPES pH 7.5, 5% DMSO, 0.1% Caliper coating reagent, 10 mM EDTA, and 0.015% Brij35). Plates with terminated kinase reactions were transferred to the Caliper LC3000 workstations for reading. Phosphorylated and unphosphorylated peptides were separated using the Caliper microfluidic mobility shift technology. Briefly, samples from terminated kinase reactions were applied to the chip. Analytes are transported through the chip by constant buffer flow and the migration of the substrate peptide is monitored by the fluorescence signal of its label. Phosphorylated peptide (product) and unphosphorylated peptide (substrate) are separated in an electric field by their charge/mass ratio. Kinase activities were calculated from the amounts of formed phospho-peptide. […] values were determined from percent inhibition values at different compound concentrations by non-linear regression analysis.
Test compounds were dissolved in DMSO (10 mM) and transferred into 1.4 mL flat bottom or V-shaped Matrix tubes carrying a unique 2D matrix. The stock solutions were stored at […] if not used immediately. For the test procedure the vials were defrosted and identified by a scanner whereby a working sheet was generated that guided the subsequent working steps.
Compound dilutions were made in 96 well plates. This format enabled the assay of maximally 40 individual test compounds at 8 concentrations (single points) including 4 reference compounds. The dilution protocol included the production of “pre-dilution plates”, “master plates” and “assay plates”.
96 polypropylene well plates were used as pre-dilution plates. A total of 4 pre-dilution plates were prepared including 10 test compounds each on the plate positions A1-A10, one standard compound at A11 and one DMSO control at A12. All dilution steps were done on a HamiltonSTAR robot.
30 μL of individual compound dilutions including standard compound and controls of the 4 “pre-dilution plates” were transferred into a 384 “master plate” including the following concentrations 1′810, 362, 72.5, […], 14.5, 2.9, 0.58 and 0.12 μM, respectively in 90% of DMSO.
Identical “assay plates” were then prepared by pipetting […] each of compound dilutions of the “master plates” into 384-well “assay plates” by means of a HummingBird 384-channel dispenser. These plates were used directly for the assay which was performed in a total volume of 9.05 μL. This led to a final compound concentration of 10, 2.0, 0.4, 0.08, 0.016, 0.0032, 0.00064 and 0.000128 μM and a final DMSO concentration of 0.5% in the assay.

hERG channel = biological target: T1, hERG channel (Homo sapiens, UniProt Q12809); assay: Inhibition of the hERG channel (manual patch clamp assay); format: cell-based; settings: HEK293 cells stably transfected with hERG cDNA, whole-cell patch clamp, tail current
T1 construct: host or cells: HEK293
T1 sequence (Q12809 whole entry): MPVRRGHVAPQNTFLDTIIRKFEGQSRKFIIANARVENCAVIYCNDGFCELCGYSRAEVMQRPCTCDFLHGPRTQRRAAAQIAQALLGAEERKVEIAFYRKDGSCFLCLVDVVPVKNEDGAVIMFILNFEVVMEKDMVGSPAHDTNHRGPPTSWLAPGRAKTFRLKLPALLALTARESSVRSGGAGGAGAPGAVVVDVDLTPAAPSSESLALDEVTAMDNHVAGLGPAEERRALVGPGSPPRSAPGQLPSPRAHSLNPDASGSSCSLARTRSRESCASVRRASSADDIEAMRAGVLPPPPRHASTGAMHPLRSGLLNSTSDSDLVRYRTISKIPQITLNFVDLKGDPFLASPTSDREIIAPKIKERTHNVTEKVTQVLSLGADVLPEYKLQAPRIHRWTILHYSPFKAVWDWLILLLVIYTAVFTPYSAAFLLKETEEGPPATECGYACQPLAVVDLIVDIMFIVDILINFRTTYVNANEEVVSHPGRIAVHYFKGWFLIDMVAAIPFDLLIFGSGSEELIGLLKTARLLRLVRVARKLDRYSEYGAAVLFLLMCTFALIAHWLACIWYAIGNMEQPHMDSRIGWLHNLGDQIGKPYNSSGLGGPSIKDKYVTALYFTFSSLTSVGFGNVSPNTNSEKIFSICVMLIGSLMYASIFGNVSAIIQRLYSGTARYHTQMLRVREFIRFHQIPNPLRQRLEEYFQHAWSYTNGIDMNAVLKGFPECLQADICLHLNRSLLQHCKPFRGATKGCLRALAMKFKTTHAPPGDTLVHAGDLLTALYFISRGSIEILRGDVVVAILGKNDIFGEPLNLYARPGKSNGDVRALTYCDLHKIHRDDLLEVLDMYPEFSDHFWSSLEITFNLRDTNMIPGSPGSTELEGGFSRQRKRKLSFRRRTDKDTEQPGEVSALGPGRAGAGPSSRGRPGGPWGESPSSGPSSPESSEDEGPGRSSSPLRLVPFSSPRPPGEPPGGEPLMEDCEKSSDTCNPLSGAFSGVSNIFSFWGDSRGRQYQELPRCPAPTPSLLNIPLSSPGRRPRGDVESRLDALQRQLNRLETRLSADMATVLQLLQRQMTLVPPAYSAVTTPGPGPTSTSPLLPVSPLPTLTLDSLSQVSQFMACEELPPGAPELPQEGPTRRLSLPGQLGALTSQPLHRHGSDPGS
Excerpt: The hERG patch clamp assay was done according to standard procedures used in Genetic Toxicology and Safety Pharmacology, based on recommendations and descriptions of methods in the literature, and according to current guidelines (ICH S7B, The non clinical evaluation of the potential for delayed ventricular repolarization (QT interval prolongation) by human pharmaceuticals, 2005). The purpose of the study is to assess the effect of the test item ABC123 on tail current recorded from HEK293 cells stably transfected with hERG cDNA. The HEK293 cells, which have been stably transfected with hERG cDNA, are a model considered to be suitable for this purpose (Zhou et al., 1998). Repolarisation of cardiac ventricular myocytes is mainly due to outward potassium currents. The most important current in humans is the delayed rectifier potassium current, IK, which has both rapidly and slowly activating components (IKr and IKs) (Sanguinetti and Jurkiewicz, 1990). The human ether-a-gogo-related-gene (hERG) encodes the major protein underlying IKr. Thus, inhibition of hERG potassium channels may lead to delayed cardiac repolarisation (Sanguinetti et al., 1995). Prolongation of cardiac repolarisation is a side effect that can be associated with some drug therapies. This proarrhythmic alteration is characterised by a prolongation of the QT interval in the surface electrocardiogram and is of particular concern because it may lead to the development of polymorphic ventricular arrhythmias like torsade de pointes (for review see: Vandenberg, Walker and Campbell, 2001). […] HERG HEK (HEK293 cells stably transfected with hERG cDNA) obtained from the University of Wisconsin were used. For the experiments the cells were plated onto sterile Thermanox plastic coverslips (Nalge Nunc International) in 6-well plates. The dishes were stored in a humidified, gassed incubator. The coverslips with cells were transferred to the recording chamber and continuously superfused (at approximately 1-2 ml/min) with vehicle. The temperature of the vehicle in the bath chamber was regulated by temperature controllers to 35° C.±2.0° C. hERG currents were measured in the whole-cell patch-clamp configuration. Once a stable patch clamp configuration was achieved, recording commenced in voltage-clamp mode, with the cell initially clamped at -75 mV. hERG current was observed and recorded if a stable hERG tail current response could be induced. […] The hERG HEK293 cells were treated approximately 9 min with the test item. The following voltage protocol was applied to induce hERG currents: The step from -75 mV to +10 mV activates an outward current (i.e. current flows out of the cell) and the step from +10 mV to -40 mV produces the tail current (the tail current represents the time taken for the current to turn off). […] The leak current was recorded and subtracted by a P/3n pulse between the voltage pulses (0.1 Hz).

SMILES	IC50 [1] [nM]	IC50 [2] [nM]	IC50 [3] [nM]	inhibition at 9 min, 3 µM (hERG channel; at 3 uM) [%]	inhibition at 9 min, 10 µM (hERG channel; at 10 uM) [%]	inhibition at 9 min, 30 µM (hERG channel; at 30 uM) [%]
Cc1c[nH]c2c(Nc3nc(N[C@@H]4CCCC[C@@H]4N)nnc3C(N)=O)cc(F)cc12 [Example 1.2, 3-((1R,2S)-2-Amino-cyclohexylamino)-5-(5-fluoro-3-methyl-1H-indol-7-ylamino)-[1,2,4]triazine-6-carboxylic acid amide]	63	491	0.8	–	–	–
Cc1c[nH]c2c(Nc3nc(N[C@@H]4CCCC[C@@H]4N)nnc3C(N)=O)cccc12 [Example 1.3, 3-((1R,2S)-2-Amino-cyclohexylamino)-5-(3-methyl-1H-indol-7-ylamino)-[1,2,4]triazine-6-carboxylic acid amide]	72	447	3.5	24 ± 3	37 ± 6	74 ± 6
NC(=O)c1nnc(N[C@@H]2CCCC[C@@H]2N)nc1Nc1cccc2[nH]ccc12 [Example 1.4, 3-((1R,2S)-2-Amino-cyclohexylamino)-5-(1H-indol-4-ylamino)-[1,2,4]triazine-6-carboxylic acid amide]	14	177	1	–	–	–
Cn1ncc2c(Nc3nc(N[C@@H]4CCCC[C@@H]4N)nnc3C(N)=O)cccc21 [Example 2.1, 3-((1R,2S)-2-Amino-cyclohexylamino)-5-(1-methyl-1H-indazol-4-ylamino)-[1,2,4]triazine-6-carboxylic acid amide]	121	509	12	–	–	–
Cn1cc2c(Nc3nc(N[C@@H]4CCCC[C@@H]4N)nnc3C(N)=O)cccc2n1 [Example 2.2, 3-((1R,2S)-2-Amino-cyclohexylamino)-5-(2-methyl-2H-indazol-4-ylamino)-[1,2,4]triazine-6-carboxylic acid amide]	58	394	–	–	–	–
NC(=O)c1nnc(N[C@@H]2CCCC[C@@H]2N)nc1Nc1cccc2c(Cl)c[nH]c12 [Example 2.3, 3-((1R,2S)-2-Amino-cyclohexylamino)-5-(3-chloro-1H-indol-7-ylamino)-[1,2,4]triazine-6-carboxylic acid amide]	393	–	11	–	–	–
N#Cc1c[nH]c2c(Nc3nc(N[C@@H]4CCCC[C@@H]4N)nnc3C(N)=O)cccc12 [Example 2.4, 3-((1R,2S)-2-Amino-cyclohexylamino)-5-(3-cyano-1H-indol-7-ylamino)-[1,2,4]triazine-6-carboxylic acid amide]	890	–	86	–	–	–
NC(=O)c1nnc(N[C@@H]2CCCC[C@@H]2N)nc1Nc1cccc2[nH]ncc12 [Example 2.5, 3-((1R,2S)-2-Amino-cyclohexylamino)-5-(1H-indazol-4-ylamino)-[1,2,4]triazine-6-carboxylic acid amide]	106	671	30	–	–	–
NC(=O)c1nnc(N[C@@H]2CCCC[C@@H]2N)nc1Nc1cc(F)cc2cc[nH]c12 [Example 2.6, 3-((1R,2S)-2-Amino-cyclohexylamino)-5-(5-fluoro-1H-indol-7-ylamino)-[1,2,4]triazine-6-carboxylic acid amide]	37	562	4.6	–	–	–
Cn1ccc2c(Nc3nc(N[C@@H]4CCCC[C@@H]4N)cnc3C(N)=O)cccc21 [Example 3.1, 5-((1R,2S)-2-Amino-cyclohexylamino)-3-(1-methyl-1H-indol-4-ylamino)-pyrazine-2-carboxylic acid amide]	25	–	0.5	–	–	–
NC(=O)c1ncc(N[C@@H]2CCCC[C@@H]2N)nc1Nc1cccc2cc[nH]c12 [Example 4.1, 5-((1R,2S)-2-Amino-cyclohexylamino)-3-(1H-indol-7-ylamino)-pyrazine-2-carboxylic acid amide]	28	311	2.7	–	–	–
Cc1c[nH]c2c(Nc3nc(N[C@@H]4CCCC[C@@H]4N)cnc3C(N)=O)cccc12 [Example 4.2, 5-((1R,2S)-2-Amino-cyclohexylamino)-3-(3-methyl-1H-indol-7-ylamino)-pyrazine-2-carboxylic acid amide]	36	596	1	–	–	–
